Assays:
[1] = test system: Saccharomyces cerevisiae (ATCC 9763); test: In vitro inhibition test against fungi, Table 9; type: cell-based; parameters: key to Inhibitory Activity (stopping power thoroughness and lasting effect): +++ = best; (−) = worst
Description: (§1) An ectoparasiticide veterinary composition of Example 1 (labelled here as PST22) was tested in an in vitro experimental laboratory to test its efficacy against conventional antibiotics used to control harmful bacteria and fungus that cause untold harm in modern poultry producers.

red mite = test: Weekly mortality in broiler houses with red mite, trial house vs control house (Example 3); type: in vivo, Dermanyssus gallinae; details: poultry, over the 28 day period; trial house 4 ml per 10 litres water, control house standard antibiotics
Description: Two broiler houses of poultry were used in the trial, a first “trial house” and a second “control house”. Mortality was recorded weekly to determine the red mite impact on the poultry.
In the trial house, the ectoparasiticide veterinary composition of Example 1 was administered to chickens via the in-line water system at a dose of 4 ml per 10 litres of clean water. The control house used the farm's standard medication program involving the administration of antibiotics (Fosfomycin and enrofloxacin). Flock performance monitoring (measuring the number of mortalities not including the standard cull numbers) was recorded weekly in each house over a 28 day period.

[2] = Average live weight and feed conversion of broiler birds, trial house vs control house (Example 4); type: in vivo; details: at 28 days, trial house 1 ml per 1 litre drinking water 6 hours daily, control house antibiotics
Description: Two poultry houses were used in the trial: a “trial house” and a “control house”. Each house contained 37000 broiler birds.
In the trial house, the ectoparasiticide veterinary composition of Example 1 was administered each afternoon continuously for 6 hours at a dosage of 1 ml per 1 litre of clean drinking water. The control house used the farm's standard medication program involving the administration of antibiotics (Fosfomycin and enrofloxacin).
Average live weight of the birds in each house was recorded weekly for a 28 day period. At the end of the trial a feed conversion ration was identified.

[3] = test system: Staphylococcus aureus (ATCC 6538P); test: In vitro inhibition test against bacteria, Table 6; type: cell-based; parameters: key to Inhibitory Activity (stopping power thoroughness and lasting effect): +++ = best; (−) = worst; details: B diluted by 1000 times
Description: as §1, with “producers. Leading world authorities including the World Health Organisation (WHO) have graded Antimicrobial Resistance (AMR) as a serious global health issue that threatens the prevention and treatment of an increasing range of infections.” for “producers.”

[4] = test system: Escherichia coli (ATCC25322); test: In vitro inhibition test against bacteria, Table 5; type: cell-based; parameters: key to Inhibitory Activity (stopping power thoroughness and lasting effect): +++ = best; (−) = worst; details: B diluted by 1000 times
Description: as §1, with “producers. Leading world authorities including the World Health Organisation (WHO) have graded Antimicrobial Resistance (AMR) as a serious global health issue that threatens the prevention and treatment of an increasing range of infections.” for “producers.”

[5] = test system: Salmonella typhimurium (ATCC 14028); test: In vitro inhibition test against bacteria, Table 7; type: cell-based; parameters: key to Inhibitory Activity (stopping power thoroughness and lasting effect): +++ = best; (−) = worst; details: B diluted by 1000 times
Description: as §1, with “producers. Leading world authorities including the World Health Organisation (WHO) have graded Antimicrobial Resistance (AMR) as a serious global health issue that threatens the prevention and treatment of an increasing range of infections.” for “producers.”

[6] = test system: Pseudomonas aeruginosa (ATCC 27853); test: In vitro inhibition test against bacteria, Table 8; type: cell-based; parameters: key to Inhibitory Activity (stopping power thoroughness and lasting effect): +++ = best; (−) = worst; details: B diluted by 1000 times
Description: as §1, with “producers. Leading world authorities including the World Health Organisation (WHO) have graded Antimicrobial Resistance (AMR) as a serious global health issue that threatens the prevention and treatment of an increasing range of infections.” for “producers.”

[7] = test system: Aspergillus niger (ITDI Ref. No. 3008); test: In vitro inhibition test against fungi, Table 10; type: cell-based; parameters: key to Inhibitory Activity (stopping power thoroughness and lasting effect): +++ = best; (−) = worst
Description: as §1

[8] = PST22 - B 1 ml/L (10 mm), Nystatin (10 mm)
[9] = A undiluted (10 mm), Oxacillin 1 ug (6 mm)
[10] = A undiluted (10 mm), Amikacin 30 ug (6 mm)
[11] = A undiluted (10 mm), Amikacin 30 ug (8 mm)
[12] = A pure (10 mm), B 1 ml/L (10 mm), Clotrimazole (10 mm)

Compound: C[C@@H]1[C@H](O)[C@@H](C)/C=C/C=C/CC/C=C/C=C/C=C/C=C/C(O[C@H]2O[C@H](C)[C@@H](O)[C@H](N)[C@@H]2O)CC2O[C@](O)(CC(O)C(O)CCC(O)CC(O)CC(O)CC(=O)O[C@H]1C)CC(O)C2C(=O)O (stereo partly drawn) [Nystatin]
- Average of 3× trials Reactivity Killing Power [1, 8]: 4 mm
- Total Mean Zone of Inhibition [1, 8]: 21.58 mm
- Trail 2 [1, 8]: 21.30 mm
- Trial 1 [1, 8]: 21.28 mm
- Trial 3 [1, 8]: 22.17 mm
- Inhibitory Activity (stopping power thoroughness and lasting effect) ([1]; PST22 - B 1 ml/L, Nystatin): +++

Compound: Fosfomycin and enrofloxacin
- mortality % (red mite): 5%
- final average live weight [2]: 1370 g

Compound: Cc1onc(-c2ccccc2)c1C(=O)N[C@@H]1C(=O)N2[C@@H]1SC(C)(C)[C@@H]2C(=O)O [Oxacillin]
- Average of 3× trials Reactivity Killing Power [3, 9]: 21.25 mm
- Trial 1 [3, 9]: 22.82 mm
- Trial 2 [3, 9]: 20.20 mm
- Trial 3 [3, 9]: 20.72 mm
- Inhibitory Activity (stopping power thoroughness and lasting effect) ([3]; A undiluted, Oxacillin 1 ug): +++

Compound: NCC[C@H](O)C(=O)N[C@@H]1C[C@H](N)[C@@H](O[C@H]2O[C@H](CN)[C@@H](O)[C@H](O)[C@H]2O)[C@H](O)[C@H]1O[C@H]1O[C@H](CO)[C@@H](O)[C@H](N)[C@H]1O [Amikacin]
- Average of 3× trials Reactivity Killing Power [4, 10]: 16.24 mm
- Trial 1 [4, 10]: 16.20 mm
- Trial 2 [4, 10]: 16.39 mm
- Trial 3 [4, 10]: 16.12 mm
- Inhibitory Activity (stopping power thoroughness and lasting effect) ([4]; A undiluted, Amikacin 30 ug): +++
- Average of 3× trials Reactivity Killing Power [5, 11]: 16.30 mm
- Trial 1 [5, 11]: 16.12 mm
- Trial 2 [5, 11]: 16.26 mm
- Trial 3 [5, 11]: 16.52 mm
- Inhibitory Activity (stopping power thoroughness and lasting effect) ([5]; A undiluted, Amikacin 30 ug): +++
- Average of 3× trials Reactivity Killing Power [6, 11]: 17.33 mm
- Trial 1 [6, 11]: 17.89 mm
- Trial 2 [6, 11]: 17.08 mm
- Trial 3 [6, 11]: 17.02 mm
- Inhibitory Activity (stopping power thoroughness and lasting effect) ([6]; A undiluted, Amikacin 30 ug): +++

Compound: Clc1ccccc1C(c1ccccc1)(c1ccccc1)n1ccnc1 [Clotrimazole]
- Average of 3× trials (larger the better) Reactivity killing power [7, 12]: 16.06 mm
- Trial 1 [7, 12]: 15.80 mm
- Trial 2 [7, 12]: 16.20 mm
- Trial 3 [7, 12]: 16.18 mm
- Inhibitory Activity (stopping power thoroughness and lasting effect) ([7]; A pure, B 1 ml/L, Clotrimazole): +++
